Each structure is given as a SMILES string.

Among the data in the METLIN SMRT retention time set (Domingo-Almenara et al. 2019) are RP-LC retention time values, retold here.

The series is described as follows: gradient 5% acetonitrile 3 min, to 50% in 2 min, to 85% in 15 min, held 3 min, 100 µL/min. Conditions: column: Zorbax Extend-C18 2.1 x 50 mm; eluents: water / acetonitrile, 0.1% formic acid. The essentials:
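Retention times come from adduct peaks that were picked computationally and then checked by hand. The standards, pure and pooled in mixtures of ~100 molecules, were run on a Zorbax Extend-C18 column (2.1 × 50 mm, 1.8 μm) at 100 μL/min with water and acetonitrile, each with 0.1% formic acid. Detection was by quadrupole time-of-flight mass spectrometry in positive and negative ionization mode, with a dead volume of 40 μL and a dwell volume of 900 μL.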
Regarding `Cc1ccc(C)c(NC(=O)N2CCN(c3nc(C)cc(N(C)C)n3)CC2)c1`, the RP-LC retention time came to 572 s.

`CCN1CCN(S(=O)(=O)c2cccc(-c3nnc(-c4ccc(C)cc4)o3)c2)CC1` showed an RP-LC retention time of 682 s.

`COc1ccc(Cl)cc1NC(=O)C1c2cc(OC)c(OC)cc2C(=O)N(C)C1c1cccnc1` (stereo not given) gave an RP-LC retention time of 703 s.

`COc1ccc(-c2ncc3c(n2)CCN(C(=O)Nc2cccc(C)c2C)C3)cc1` had an RP-LC retention time of 894 s.

`CC1CCN(C(=O)C2=NN(Cc3nc(C4CC4)no3)c3ccccc3S2(=O)=O)CC1` registered an RP-LC retention time of 904 s.

As to `CN(C(=O)c1ccc(-c2cnc(N3CCCC3)nc2)cc1)C1CCCCC1`, the RP-LC retention time came out at 969 s.

The compound `CNC(=O)c1cc(-c2ccc(OC)cc2)n(C)c1C` came in with an RP-LC retention time of 783 s.

For `O=C(Cn1cc(-c2ccc(F)cc2)oc1=O)NC1CCN(Cc2ccccc2)CC1`, the RP-LC retention time is 632 s.

`Cc1ccc(NC(=O)N2CCC(c3nc(C(=O)N4CCCC4)c(C)o3)CC2)cc1F`: the RP-LC retention time stood at 835 s.

`CC(=O)Nc1ccc(C2(C(=O)NCc3ccc(F)cc3)CCC2)cc1` displayed an RP-LC retention time of 748 s.

Regarding `Cc1ccc(F)cc1NC(=O)Cn1nc2nc(N3CCCC(C)C3)ccn2c1=O` (stereo not given), the RP-LC retention time was determined as 804 s.

`COc1cccc(-c2noc(C3CCCN3C(=O)Nc3ccc(C)cc3)n2)c1` (stereo not given): the RP-LC retention time is 983 s.

Take `Cc1ccc(NC(=O)N2CCC(n3cnc4cc(Cl)ccc4c3=O)CC2)cc1F`: the RP-LC retention time was found to be 904 s.

The compound `Cc1ccc(NC(=O)CCc2nc(CSc3nnc(-c4ccccc4)o3)no2)cc1Cl` returned an RP-LC retention time of 1030 s.

On to `O=C(Cc1c[nH]c2ccccc12)N1CC(n2cc(COCC3CC3)nn2)C1`, for which the RP-LC retention time is 704 s.

For `CCOc1cccc2cc(C(=O)Nc3ccc(S(N)(=O)=O)cc3)oc12`, the RP-LC retention time was 747 s.

The compound `O=C(Cn1c(C(F)(F)F)nc2cc3c(cc21)OCCO3)Nc1ccc2c(c1)OCCCO2` came in with an RP-LC retention time of 836 s.

Consider `Cc1ccc(NC(=O)Nc2c(-c3ccncc3)nc3ccccn23)cc1C`, for which the RP-LC retention time amounted to 632 s.

In the case of `O=C1NC2(CCN(C(=O)Nc3ccc(F)cc3)CC2)N=C1c1ccc(Cl)cc1`, the RP-LC retention time was determined as 890 s.

`NC(N)=NC(=O)c1nc(Cl)c(N2CCCCCC2)nc1N` displayed an RP-LC retention time of 758 s.

In turn, `O=C(NCCC1CCN(C(=O)Nc2ccc(F)cc2F)CC1)C1CCCC1` registered an RP-LC retention time of 777 s.

As to `O=C(NCCC1=CCCCC1)c1nnc(-c2ccc(S(=O)(=O)N3CCCCC3)cc2)o1`, the RP-LC retention time worked out at 1160 s.

In the case of `COc1cccc(C2CC(c3ccc(Br)cc3)=NC3(CCN(C)CC3)N2)c1O` (stereo not given), the RP-LC retention time came to 620 s.

For `Cc1ccc(Cn2nc3c(S(=O)(=O)N4CCCC4)cccn3c2=O)cc1`, the RP-LC retention time worked out at 880 s.

Take `COC(=O)C1CCN(S(=O)(=O)CCCOc2cccc3c2OC(C)(C)C3)CC1`: the RP-LC retention time is 936 s.

`O=C(Cn1ccc2ccccc21)Nc1nccs1` gave an RP-LC retention time of 748 s.

In turn, `Cc1ccccc1NS(=O)(=O)c1cc(-c2[nH]ncc2C(=O)N2CCCCC2)oc1C` returned an RP-LC retention time of 755 s.

Compound `CNC(=O)c1cccc(-c2noc(C)n2)c1` registered an RP-LC retention time of 644 s.

Turning to `CCOC(=O)c1sc(NC(=O)Cn2nc3c(cc2=O)CCCC3)nc1C`, the RP-LC retention time was 764 s.

For `CCN(CC)C(=O)N1CC(n2cc(C(=O)N(C)CCOC)nn2)C1`, the RP-LC retention time worked out at 624 s.

Compound `Cc1cc(C(=O)Nc2ccc(C)c(F)c2)n(CC(=O)Nc2ccc(F)cc2)n1` yielded an RP-LC retention time of 922 s.

The compound `Cc1[nH]nc(-c2c(C)sc(C)c2S(=O)(=O)N2CCN(c3ccccc3F)CC2)c1C` registered an RP-LC retention time of 1010 s.

As to `CCC(=O)Nc1ccc(C2(C(=O)N3CCN(c4ccccc4)CC3)CCC2)cc1`, the RP-LC retention time was 861 s.

The compound `Cc1ccc(NC(=O)C2CCCN2S(=O)(=O)c2ccc3c(c2)CCCC(=O)N3)cc1C` (stereo not given) showed an RP-LC retention time of 818 s.

Turning to `COc1ccc(CCNS(=O)(=O)c2cccc(-c3nc(-c4ccccc4)no3)c2)cc1OC`, the RP-LC retention time is 1070 s.

`CCOCCCNC(=O)C1(C)Cn2c(ccc2-c2ccco2)C(=O)N1c1ccc(OC)c(OC)c1` (stereo not given): the RP-LC retention time worked out at 752 s.

`Cc1nnc(-c2ccc3ccn(CC(=O)N4CCc5ccccc54)c3c2)o1` registered an RP-LC retention time of 852 s.

Regarding `CCS(=O)(=O)N1CCCc2cc(C(=O)N3CCCCCC3)ccc21`, the RP-LC retention time turned out to be 824 s.

`Cn1c(=O)c2nscc2n(CC(=O)NC2CCCCC2)c1=O`: the RP-LC retention time amounted to 664 s.

In turn, `Cc1noc(C)c1CC(=O)NC1CCN(c2ccc(=O)n(CCOc3ccccc3)n2)C1` (stereo not given) yielded an RP-LC retention time of 701 s.

In turn, `O=C(CCC1CCCC1)Nc1ccc(N2CCN(C3CCCC3)C2=O)nc1` showed an RP-LC retention time of 884 s.

`CCOc1ccc(S(=O)(=O)N2CCCC(C(=O)NC)C2)cc1C` (stereo not given) registered an RP-LC retention time of 788 s.

Compound `Cc1cc(C)cc(NC(=O)N2CCC(n3cnc4c(C)cccc4c3=O)CC2)c1` came in with an RP-LC retention time of 911 s.

Turning to `CCOc1ccc(-c2noc(Cc3nnc(-c4cccc(Cl)c4)o3)n2)cc1`, the RP-LC retention time is 1140 s.

`Cc1cc(C(=O)N2CCCn3ccnc3C2C2CCCC2)n[nH]1` (stereo not given) gave an RP-LC retention time of 584 s.

`COc1ccc(-c2nc3ccc(Cl)cn3c2Nc2ccc3c(c2)OCCO3)cc1` showed an RP-LC retention time of 750 s.

In the case of `CCN1C(=O)Cc2ccccc2C1C(=O)NCc1cccc(F)c1` (stereo not given), the RP-LC retention time is 744 s.

Consider `COc1nccnc1N1CCC(NC(=O)Cc2c(C)noc2C)C1` (stereo not given), for which the RP-LC retention time worked out at 596 s.

`CN(C)CCNC(=O)C1CCN(c2nc3ccc(-c4cncnc4)nc3s2)CC1` gave an RP-LC retention time of 574 s.

`O=C(NC1CC1)C1CC(=O)N(c2ccc3c(c2)CCN3C(=O)C2CCC2)C1` (stereo not given) registered an RP-LC retention time of 660 s.

The compound `COc1ccc(NC(=O)c2cnc(N3CCN(C(C)=O)CC3)nc2N)cc1` yielded an RP-LC retention time of 601 s.

Regarding `Cc1nc(-c2noc(-c3ccncc3)n2)cn1CC(=O)NC1CCCCC1`, the RP-LC retention time amounted to 896 s.

As for `CCCn1cc(C(=O)Nc2ccc(OC)c(Cl)c2)c(=O)c2ccc(C)nc21`, the RP-LC retention time is 1210 s.

Regarding `CCOC(=O)N1CCC(Nc2c(C(=O)OC)c(=O)[nH]c3ccc(F)cc23)CC1`, the RP-LC retention time came to 705 s.

Compound `O=C(NC1CCCCC1)C1CCCN(c2nnc3ccc(Cl)cn23)C1` (stereo not given) yielded an RP-LC retention time of 778 s.

`COc1ccc(NC(=O)C2CN(S(C)(=O)=O)CC23CCCCC3)cc1` (stereo not given) gave an RP-LC retention time of 852 s.

On to `Cc1nc2cc(-c3noc(-c4nn(C)c5ccccc45)n3)ccc2o1`, for which the RP-LC retention time is 1040 s.

As to `Cc1cccc(CCNC(=O)C2CCN(S(=O)(=O)N3CCOCC3)CC2)c1`, the RP-LC retention time is 769 s.

`c1ccc(-c2nc3cnc(N4CCN(c5ccccc5)CC4)nc3o2)cc1` gave an RP-LC retention time of 1340 s.

The compound `CCOCCCn1c(SCc2nc(-c3ccc(F)cc3)no2)nc2ccccc2c1=O` showed an RP-LC retention time of 1150 s.
